Results published in patent US20260130933A1, “PHARMACEUTICAL COMPOSITION FOR PREVENTION OR TREATMENT OF NEPHROPATHY AND/OR DIABETES MELLITUS, COMPRISING ENAVOGLIFLOZIN” (DAEWOONG PHARMACEUTICAL CO., LTD., priority 2022, published 2026).

Assay: Example 1: phase 3 trial, enavogliflozin 0.3 mg once a day as monotherapy vs placebo for 24 weeks in patients with type 2 diabetes (HbA1c, FPG, C-peptide, body weight, lipids, blood pressure, HOMA, UACR, UGCR, adiponectin, leptin, safety)
Format: in vivo, human
Settings: for Change from baseline in HOMA-IR, ANCOVA LS mean difference / Change from baseline in HOMA-β, ANCOVA LS mean difference / Change from baseline in UACR, ANCOVA LS mean difference / Change from baseline in UGCR, ANCOVA LS mean difference / Change from baseline in adiponectin, ANCOVA LS mean difference / Change from baseline in leptin, ANCOVA LS mean difference: 0.3 mg vs placebo
Protocol: When a subject voluntarily gave written consent to participate in this clinical trial, a screening test was conducted. […] However, when the administration of a hypoglycemic agent was interrupted before the clinical trial Visit 1 (screening), at least an 8-week washout period, including the discontinuation period, was required, and during this period, a stable diet and exercise program was followed. Naïve patients were screened without a separate washout period, and the criteria for naïve patients were defined as patients who had not been administered hypoglycemic agents within 24 weeks prior to the date of obtaining written consent. […] In addition, they were instructed to maintain regular exercise and dietary control starting from 8 weeks prior to screening without changing their daily life patterns during the clinical trial period.

[1] = Week 18, LOCF, full analysis set, 0.3 mg
[2] = Week 18, LOCF, full analysis set
[3] = Week 24, LOCF, full analysis set, 0.3 mg
[4] = Week 24, LOCF, full analysis set

OC[C@H]1O[C@@H](c2cc(Cc3ccc(C4CC4)cc3)c(Cl)c3c2CCO3)[C@H](O)[C@@H](O)[C@@H]1O [Enavogliflozin, (2S,3R,4R,5S,6R)-2-(7-chloro-6 (4-cyclopropylbenzyl)-2,3-dihydrobenzofuran-4-yl)-6-(hydroxymethyl)tetrahydro-2H-pyran-3,4,5-triol]
Change from baseline in HOMA-IR, Median [1]: −1.10 | Change from baseline in HOMA-β, ANCOVA LS mean (SE) [1]: 28.64 | Change from baseline in HOMA-β, Mean (SD) [1]: 23.65 | Change from baseline in HOMA-β, Median [1]: 5.95 | Change from baseline in UACR, ANCOVA LS mean (SE) [1]: -5.53 g/kg | Change from baseline in UACR, Mean (SD) [1]: -8720 mg/kg | Change from baseline in UACR, Median [1]: -0.75 g/kg | Change from baseline in UGCR, ANCOVA LS mean (SE) [1]: 51.70 mg/mg | Change from baseline in UGCR, Mean (SD) [1]: 50.96 mg/mg | Change from baseline in UGCR, Median [1]: 54.29 mg/mg | Change from baseline in adiponectin, ANCOVA LS mean (SE) [1]: 0.97 µg/mL | Change from baseline in adiponectin, Mean (SD) [1]: 0.83 µg/mL | Change from baseline in adiponectin, Median [1]: 0.61 µg/mL | Change from baseline in leptin, ANCOVA LS mean (SE) [1]: -2.70 ng/mL | Change from baseline in leptin, Mean (SD) [1]: -2.20 ng/mL | Change from baseline in leptin, Median [1]: -1.21 ng/mL | HOMA-IR, Mean (SD) [1]: 1.99 | HOMA-IR, Median [1]: 1.51 | HOMA-β, Mean (SD) [1]: 70.05 | HOMA-β, Median [1]: 43.85 | Leptin, Mean (SD) [1]: 8.96 ng/mL | Leptin, Median [1]: 6.05 ng/mL | UACR, Mean (SD) [1]: 19480 mg/kg | UACR, Median [1]: 10.50 g/kg | UGCR, Mean (SD) [1]: 52.38 mg/mg | UGCR, Median [1]: 54.51 mg/mg | Change from baseline in HOMA-IR, ANCOVA LS mean difference [2]: −1.49 | Change from baseline in HOMA-β, ANCOVA LS mean difference [2]: 22.40 | Change from baseline in UACR, ANCOVA LS mean difference [2]: -13.39 g/kg | Change from baseline in UGCR, ANCOVA LS mean difference [2]: 47.66 mg/mg | Change from baseline in adiponectin, ANCOVA LS mean difference [2]: 1.04 µg/mL | Change from baseline in leptin, ANCOVA LS mean difference [2]: -2.36 ng/mL | Adiponectin, Mean (SD) [3]: 9.07 µg/mL | Adiponectin, Median [3]: 7.57 µg/mL | Change from baseline in HOMA-IR, ANCOVA LS mean (SE) [3]: −1.57 | Change from baseline in HOMA-IR, Mean (SD) [3]: −1.52 | Change from baseline in HOMA-IR, Median [3]: −0.99 | Change from baseline in HOMA-β, ANCOVA LS mean (SE) [3]: 7.97 | Change from baseline in HOMA-β, Mean (SD) [3]: 8.24 | Change from baseline in HOMA-β, Median [3]: 6.10 | Change from baseline in UACR, ANCOVA LS mean (SE) [3]: -4.31 g/kg | Change from baseline in UACR, Mean (SD) [3]: -6750 mg/kg | Change from baseline in UACR, Median [3]: -0.15 g/kg | Change from baseline in UGCR, ANCOVA LS mean (SE) [3]: 49.76 mg/mg | Change from baseline in UGCR, Mean (SD) [3]: 48.97 mg/mg | Change from baseline in UGCR, Median [3]: 50.09 mg/mg | Change from baseline in adiponectin, ANCOVA LS mean (SE) [3]: 1.25 µg/mL | Change from baseline in adiponectin, Mean (SD) [3]: 1.28 µg/mL | Change from baseline in adiponectin, Median [3]: 1.08 µg/mL | Change from baseline in leptin, ANCOVA LS mean (SE) [3]: -2.36 ng/mL | Change from baseline in leptin, Mean (SD) [3]: -2.07 ng/mL | Change from baseline in leptin, Median [3]: -0.84 ng/mL | HOMA-IR, Mean (SD) [3]: 1.94 | HOMA-IR, Median [3]: 1.58 | HOMA-β, Mean (SD) [3]: 54.64 | HOMA-β, Median [3]: 46.65 | Leptin, Mean (SD) [3]: 9.09 ng/mL | Leptin, Median [3]: 6.89 ng/mL | UACR, Mean (SD) [3]: 21440 mg/kg | UACR, Median [3]: 9.00 g/kg | UGCR, Mean (SD) [3]: 50.40 mg/mg | UGCR, Median [3]: 50.80 mg/mg | Change from baseline in HOMA-IR, ANCOVA LS mean difference [4]: −1.94 | Change from baseline in HOMA-β, ANCOVA LS mean difference [4]: 5.88 | Change from baseline in UACR, ANCOVA LS mean difference [4]: -13.92 g/kg | Change from baseline in UGCR, ANCOVA LS mean difference [4]: 47.36 mg/mg | Change from baseline in adiponectin, ANCOVA LS mean difference [4]: 0.98 µg/mL | Change from baseline in leptin, ANCOVA LS mean difference [4]: -2.99 ng/mL | Body weight, Mean (week 6): 66.81 kg | Diastolic blood pressure, Mean (week 6): 73.81 mmHg | FPG change from baseline, LS mean (SE) (week 6): −27.78(2.47) mg/dL | FPG change from baseline, Mean (SD) (week 6): −25.86(20.19) mg/dL | FPG, Mean (SD) (week 6): 115.19(14.55) mg/dL | HDL-C change from baseline, LS mean (week 6): 2.40 mg/dL | HDL-C change from baseline, Mean (week 6): 2.07 mg/dL | HDL-C, Mean (week 6): 53.79 mg/dL | HbA1c change from baseline, LS mean (SE) (week 6): −0.67(0.05) % p | HbA1c change from baseline, Mean (SD) (week 6): −0.63(0.39) % p | HbA1c, Mean (SD) (week 6): 7.01(0.59) % | LDL-C change from baseline, LS mean (week 6): 1.23 mg/dL | LDL-C change from baseline, Mean (week 6): 1.55 mg/dL | LDL-C, Mean (week 6): 96.18 mg/dL | Subjects achieving HbA1c target of <6.5% (week 6): 12(14.81) % | Subjects achieving HbA1c target of <7% (week 6): 40(49.38) % | Subjects achieving therapeutic glycemic response (HbA1c change >0.5% or HbA1c<7%) (week 6): 61(75.31) % | Systolic blood pressure, Mean (week 6): 123.32 mmHg | body weight change from baseline, LS mean (week 6): -2.03 kg | body weight change from baseline, Mean (week 6): -2.05 kg | diastolic blood pressure change from baseline, LS mean (week 6): −2.99 mmHg | diastolic blood pressure change from baseline, Mean (week 6): −2.65 mmHg
